This is an account of results in US9598440B2, “Inhibitors of IRAK4 activity” (MERCK SHARP & DOHME CORP., priority 2012, dated 2017).

A word on the IC50: it is the concentration at which inhibition is half-maximal.

Chain of IRAK4 (Q9NWZ3 whole entry): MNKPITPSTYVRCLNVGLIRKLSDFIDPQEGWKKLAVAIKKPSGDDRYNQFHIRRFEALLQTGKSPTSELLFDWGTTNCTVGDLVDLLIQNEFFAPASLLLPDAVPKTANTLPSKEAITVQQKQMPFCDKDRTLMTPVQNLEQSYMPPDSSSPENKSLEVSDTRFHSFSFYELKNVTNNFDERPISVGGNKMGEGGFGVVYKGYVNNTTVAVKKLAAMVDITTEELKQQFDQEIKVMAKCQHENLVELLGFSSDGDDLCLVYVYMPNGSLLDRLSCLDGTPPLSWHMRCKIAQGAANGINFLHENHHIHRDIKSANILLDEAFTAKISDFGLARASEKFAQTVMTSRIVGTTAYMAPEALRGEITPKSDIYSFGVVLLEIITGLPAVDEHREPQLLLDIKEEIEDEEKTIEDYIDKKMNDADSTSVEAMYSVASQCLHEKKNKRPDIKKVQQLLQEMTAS

This experiment concerns the target IRAK4 (Homo sapiens (Human), UniProt Q9NWZ3). The experiment can be described thus: Determination of IRAK4 kinase activity (IMAP fluorescence polarization, phosphorylation of fluorescent peptide substrate). It counts as biochemical. As to conditions: 0.5 nM GST tagged IRAK4, 100 nM peptide substrate RP7030, 100 μM ATP, 30 minutes at 25° C. The method in brief: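 GST-tagged IRAK4 (0.5 nM) phosphorylated 100 nM fluorescent peptide substrate with 100 µM ATP in Tris-HCl pH 7.2, 1 mM MgCl2, 1 mM DTT, 0.01% Tween 20 for 30 min at 25 °C. Phosphorylation read by IMAP nanoparticle binding as fluorescence polarization increase.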
On the technique in general: Polarisation of emitted light reports the rotation of a fluorescent probe.
In turn, `Cc1cc(C)cc(Nc2ncc(-c3nc4ccccc4s3)c(N[C@@H]3C[C@H](CO)[C@@H](O)[C@H]3O)n2)c1` [Example 35, (1R,2S,3R,5R)-3-((5-(benzo[d]thiazol-2-yl)-2-((3,5-dimethylphenyl)amino)pyrimidin-4-yl)amino)-5-(hydroxymethyl)cyclopentane-1,2-diol] gave an IC50 of 10 nM. That is a double-digit nanomolar value. The same measure for `OC[C@H]1C[C@@H](Nc2nc(Nc3cncnc3)ncc2-c2nc(-c3ccccc3)cs2)[C@H](O)[C@@H]1O` [Example 81, 6-(((1R,2S,3R,4R)-2,3-dihydroxy-4-(hydroxymethyl)cyclopentyl)amino)-5-(4-phenylthiazol-2-yl)-2-(pyrimidin-5-ylamino)pyrimidine]: 94 nM; for `OC[C@H]1C[C@@H](Nc2nc(Nc3ccncn3)ncc2-c2nc3ccccc3s2)[C@H](O)[C@@H]1O` [Example 25, (1R,2S,3R,5R)-3-((5-(benzo[d]thiazol-2-yl)-2-(pyrimidin-4-ylamino)pyrimidin-4-yl)amino)-5-(hydroxymethyl)cyclopentane-1,2-diol]: 34 nM. For `OC[C@H]1C[C@@H](Nc2nc(Nc3ccncc3F)ncc2-c2nc3ccccc3s2)[C@H](O)[C@@H]1O` [Example 30, (1R,2S,3R,5R)-3-((5-(benzo[d]thiazol-2-yl)-2-((3-fluoropyridin-4-yl)amino)pyrimidin-4-yl)amino)-5-(hydroxymethyl)cyclopentane-1,2-diol], half-maximal inhibition (IC50) required 44 nM. For the molecule `Nc1ncc(-c2ccc3ccccc3n2)c(N[C@@H]2C[C@H](CO)[C@@H](O)[C@H]2O)n1` [Example 19, (1R,2S,3R,5R)-3-((2-amino-5-(quinolin-2-yl)pyrimidin-4-yl)amino)-5-(hydroxymethyl)cyclopentane-1,2-diol], the IC50 worked out at 104 nM. In turn, `OC[C@H]1C[C@@H](Nc2nc(NC3CCOC3)ncc2-c2nc3ccccc3s2)[C@H](O)[C@@H]1O` (mixture of isomers) [Example 48, (1R,2S,3R,5R)-3-((5-(benzo[d]thiazol-2-yl)-2-(((RS)-tetrahydrofuran-3-yl)amino)pyrimidin-4-yl)amino)-5-(hydroxymethyl)cyclopentane-1,2-diol] showed an IC50 of 1580 nM. As for `Cc1cc(Nc2cc(N[C@@H]3C[C@H](CO)[C@@H](O)[C@H]3O)c(-c3nc4ccccc4s3)cn2)cc(C)n1` [Example 154, (1R,2S,3R,5R)-3-((5-(benzo[d]thiazol-2-yl)-2-((2,6-dimethylpyridin-4-yl)amino)pyridin-4-yl)amino)-5-(hydroxymethyl)cyclopentane-1,2-diol], the figure is 13 nM.

`CC(C)(O)[C@H]1C[C@@H](Nc2nc(N)ncc2-c2nc3ccccc3s2)[C@H](O)[C@@H]1O` [Example 130, (1R,2S,3R,5S)-3-((2-amino-5-(benzo[d]thiazol-2-yl)pyrimidin-4-yl)amino)-5-(2-hydroxypropan-2-yl)cyclopentane-1,2-diol] returned a 50% inhibitory concentration (IC50) of 23 nM. `Cc1cc(Nc2ncc(-c3ccc4ccccc4n3)c(N[C@@H]3CC(C(C)(C)O)[C@@H](O)[C@H]3O)n2)cc(C)n1` (stereo in doubt) [Example 111, 6-(((1R,2S,3R,4R)-2,3-dihydroxy-4-(2-hydroxypropan-2-yl)cyclopentyl)amino)-2-((2,6-dimethylpyridin-4-yl)amino)-5-(quinolin-2-yl)pyrimidine] showed a concentration for half-maximal inhibition (IC50) of 0.2 nM. In turn, `OC[C@H]1C[C@@H](Nc2nc(Nc3ccc4[nH]ncc4c3)ncc2-c2nc3ccccc3s2)[C@H](O)[C@@H]1O` [Example 50, (1R,2S,3R,5R)-3-((2-((1H-indazol-5-yl)amino)-5-(benzo[d]thiazol-2-yl)pyrimidin-4-yl)amino)-5-(hydroxymethyl)cyclopentane-1,2-diol] returned an IC50 of 6.5 nM. `Nc1ncc(-c2nccs2)c(N[C@@H]2C[C@H](CO)[C@@H](O)[C@H]2O)n1` [Example 64, 2-amino-6-(((1R,2S,3R,4R)-2,3-dihydroxy-4-(hydroxymethyl)cyclopentyl)amino)-5-(thiazol-2-yl)pyrimidine] displayed an IC50 of 241 nM. In the case of `OC[C@H]1C[C@@H](Nc2nc(Nc3cccc(O)c3)ncc2-c2nc3ccccc3s2)[C@H](O)[C@@H]1O` [Example 3, (1R,2S,3R,5R)-3-((5-(benzo[d]thiazol-2-yl)-2-((3-hydroxyphenyl)amino)pyrimidin-4-yl)amino)-5-(hydroxymethyl)cyclopentane-1,2-diol], half-maximal inhibition (IC50) required 12 nM.

For `OC[C@H]1C[C@@H](Nc2nc(NC3CC3)ncc2-c2ccc3ccccc3n2)[C@H](O)[C@@H]1O` [Example 60, 2-(cyclopropylamino)-6-(((1R,2S,3R,4R)-2,3-dihydroxy-4-(hydroxymethyl)cyclopentyl)amino)-5-(quinolin-2-yl)pyrimidine], it took 1470 nM to reach half-maximal inhibition (IC50). As for `Cc1nc(Nc2ccncc2)cc(N[C@@H]2C[C@H](CO)[C@@H](O)[C@H]2O)c1-c1nc2ccccc2s1` [Example 150, (1R,2S,3R,5R)-3-((3-(benzo[d]thiazol-2-yl)-2-methyl-6-(pyridin-4-ylamino)pyridin-4-yl)amino)-5-(hydroxymethyl)cyclopentane-1,2-diol], the figure is 16000 nM; as for `CC(C)(O)C1C[C@@H](Nc2nc(Nc3ccccc3)ncc2-c2nc3ccccc3s2)[C@H](O)[C@@H]1O` (stereo in doubt) [Example 119, 5-(benzo[d]thiazol-2-yl)-6-(((1R,2S,3R,4R)-2,3-dihydroxy-4-(2-hydroxypropan-2-yl)cyclopentyl)amino)-2-(phenylamino)pyrimidine], 16 nM; as for `OC[C@H]1C[C@@H](Nc2cc(Nc3ccc(F)cc3)ncc2-c2nc3ccccc3s2)[C@H](O)[C@@H]1O` [Example 151, (1R,2S,3R,5R)-3-((5-(benzo[d]thiazol-2-yl)-2-((4-fluorophenyl)amino)pyridin-4-yl)amino)-5-(hydroxymethyl)cyclopentane-1,2-diol], 1140 nM. `Nc1ncc(-c2nc3ccccc3o2)c(N[C@@H]2C[C@H](CO)[C@@H](O)[C@H]2O)n1` [Example 5, (1R,2S,3R,5R)-3-((2-amino-5-(benzo[d]oxazol-2-yl)pyrimidin-4-yl)amino)-5-(hydroxymethyl)cyclopentane-1,2-diol] gave an IC50 of 2560 nM. Turning to `OC[C@H]1C[C@@H](Nc2nc(NC3CCC3)ncc2-c2nc3cnccc3s2)[C@H](O)[C@@H]1O` [Example 76, 2-(cyclobutylamino)-6-(((1R,2S,3R,4R)-2,3-dihydroxy-4-(hydroxymethyl)cyclopentyl)amino)-5-(thiazolo[4,5-c]pyridin-2-yl)pyrimidine], the IC50 is 560 nM. `Cc1cc(Nc2ncc(-c3ccc4ccccc4n3)c(N[C@@H]3C[C@H](C(C)(C)O)[C@@H](O)[C@H]3O)n2)ccn1` [Example 124, 6-(((1R,2S,3R,4R)-2,3-dihydroxy-4-(2-hydroxypropan-2-yl)cyclopeltyl)amino)-2-((2-methylpyridin-4-yl)amino)-5-(quinolin-2-yl)pyrimidine] had an IC50 of 0.2 nM. As for `Cc1cc(Nc2ncc(-c3nc(C)cs3)c(N[C@@H]3C[C@H](C(C)(C)O)[C@@H](O)[C@H]3O)n2)cc(C)n1` [Example 133, (1R,2S,3R,5S)-3-((2-((2,6-dimethylpyridin-4-yl)amino)-5-(4-methylthiazol-2-yl)pyrimidin-4-yl)amino)-5-(2-hydroxypropan-2-yl)cyclopentane-1,2-diol], the figure is 0.2 nM. The same measure for `CN(C)c1cccc(Nc2ncc(-c3nc4ccccc4s3)c(N[C@@H]3C[C@H](CO)[C@@H](O)[C@H]3O)n2)c1` [Example 39, (1R,2S,3R,5R)-3-((5-(benzo[d]thiazol-2-yl)-2-((3-(dimethylamino)phenyl)amino)pyrimidin-4-yl)amino)-5-(hydroxymethyl)cyclopentane-1,2-diol]: 8.9 nM; for `CC(C)(O)C1C[C@@H](Nc2nc(Nc3cccc(C#N)c3)ncc2-c2nc3ccccc3s2)[C@H](O)[C@@H]1O` (stereo in doubt) [Example 115, 5-(benzo[d]thiazol-2-yl)-2-((3-cyanophenyl)amino)-6-(((1R,2S,3R,4R)-2,3-dihydroxy-4-(2-hydroxypropan-2-yl)cyclopentyl)amino)pyrimidine]: 36 nM; for `Cc1nc(Nc2cccc(C(N)=O)c2)nc(N[C@@H]2C[C@H](CO)[C@@H](O)[C@H]2O)c1-c1nc2ccccc2s1` [Example 102, 3-((5-(benzo[d]thiazol-2-yl)-4-(((1R,2S,3R,4R)-2,3-dihydroxy-4-(hydroxymethyl)cyclopentyl)amino)-6-methylpyrimidin-2-yl)amino)benzamide]: 142 nM. Turning to `OC[C@H]1C[C@@H](Nc2nc(Nc3ccncc3)ncc2-c2nccs2)[C@H](O)[C@@H]1O` [Example 65, 6-(((1R,2S,3R,4R)-2,3-dihydroxy-4-(hydroxymethyl)cyclopentyl)amino)-2-(pyridin-4-ylamino)-5-(thiazol-2-yl)pyrimidine], half-maximal inhibition (IC50) was put at 260 nM. As for `CN(C)c1ccc(Nc2ncc(-c3nc4cnccc4s3)c(N[C@@H]3C[C@H](CO)[C@@H](O)[C@H]3O)n2)cc1` [Example 66, (1R,2S,3R,5R)-3-((2-((4-(dimethylamino)phenyl)amino)-5-(thiazolo[4,5-c]pyridin-2-yl)pyrimidin-4-yl)amino)-5-(hydroxymethyl)cyclopentane-1,2-diol], the figure is 4 nM; as for `OC[C@H]1C[C@@H](Nc2nc(NC3CCNC3)ncc2-c2nc3ccccc3s2)[C@H](O)[C@@H]1O` (mixture of isomers) [Example 51, (1R,2S,3R,5R)-3-((5-(benzo[d]thiazol-2-yl)-2-((RS)-pyrrolidin-3-ylamino)pyrimidin-4-yl)amino)-5-(hydroxymethyl)cyclopentane-1,2-diol], 1380 nM; as for `COc1cc(Nc2ncc(-c3nc(C)cs3)c(N[C@@H]3C[C@H](C(C)(C)O)[C@@H](O)[C@H]3O)n2)ccn1` [Example 135, (1S,2R,3 S,5R)-3-(2-hydroxypropan-2-yl)-5-((2-((2-methoxypyridin-4-yl)amino)-5-(4-methylthiazol-2-yl)pyrimidin-4-yl)amino)cyclopentane-1,2-diol], 1 nM.
